For assay [1], the target named is T1, aldehyde dehydrogenase 2 (ALDH-2) (Homo sapiens, UniProt P05091).
T1 sequence (P05091 18-517): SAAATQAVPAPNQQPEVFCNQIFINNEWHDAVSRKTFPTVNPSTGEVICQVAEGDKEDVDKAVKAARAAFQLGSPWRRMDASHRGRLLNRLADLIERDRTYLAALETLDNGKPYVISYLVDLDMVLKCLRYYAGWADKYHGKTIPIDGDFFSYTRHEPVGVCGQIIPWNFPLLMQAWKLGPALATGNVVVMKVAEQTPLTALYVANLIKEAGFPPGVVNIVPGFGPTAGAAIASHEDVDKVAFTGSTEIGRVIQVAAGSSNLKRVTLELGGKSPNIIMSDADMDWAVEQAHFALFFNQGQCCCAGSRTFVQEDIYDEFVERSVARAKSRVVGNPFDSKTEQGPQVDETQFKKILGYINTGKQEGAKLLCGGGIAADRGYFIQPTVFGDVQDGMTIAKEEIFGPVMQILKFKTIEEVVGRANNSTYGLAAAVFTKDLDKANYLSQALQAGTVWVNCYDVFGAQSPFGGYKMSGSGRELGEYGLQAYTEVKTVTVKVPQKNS
Briefly: fluorimetric dehydrogenase activity assay. Type of assay: biochemical.

In the next assay the target is T2, ALDH-1 (Homo sapiens, UniProt P00352).
T2 sequence (P00352 2-501): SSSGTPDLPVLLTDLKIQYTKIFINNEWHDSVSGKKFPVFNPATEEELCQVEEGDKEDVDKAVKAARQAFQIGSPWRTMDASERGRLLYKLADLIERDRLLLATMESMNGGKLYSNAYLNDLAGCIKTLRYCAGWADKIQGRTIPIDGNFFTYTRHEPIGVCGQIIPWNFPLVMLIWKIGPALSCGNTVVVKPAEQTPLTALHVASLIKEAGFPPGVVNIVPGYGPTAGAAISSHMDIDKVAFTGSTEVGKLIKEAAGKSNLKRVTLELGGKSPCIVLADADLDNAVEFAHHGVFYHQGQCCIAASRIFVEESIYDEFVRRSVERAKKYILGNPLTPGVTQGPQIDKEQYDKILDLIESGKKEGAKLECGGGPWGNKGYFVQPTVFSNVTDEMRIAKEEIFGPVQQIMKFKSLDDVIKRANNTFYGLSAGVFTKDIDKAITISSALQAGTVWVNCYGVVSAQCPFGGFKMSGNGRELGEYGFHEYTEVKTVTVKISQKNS
Description: fluorimetric dehydrogenase activity assay. Type of assay: biochemical.

In general, IC50 refers to the midpoint of a concentration-inhibition curve. A low value points to inhibition by little substance. In the case of `CS(=O)(=O)Nc1ccc(-c2coc3cc(OCc4cccc(C(=O)O)c4)ccc3c2=O)cc1` [CVT-10216, 3-((3-(4-(methylsulfonamido)phenyl)-4-oxo-4H-chromen-7-yloxy)methyl)benzoic acid], the IC50 in assay [1] is about 29 nM; against ALDH-1, 1300 nM.

(Values after article PMC8212937 (Alcoholism, clinical and experimental research, 2009).)
